From patent US10202391B2, “Chemical compounds” (AstraZeneca AB, priority 2015, dated 2019)

Legend:
[1] = test system: phospho-p90RSK in A375 cell line; assay: A375 Phospho-p90RSK Cellular Assay; assay type: cell-based, human; conditions: Homo sapiens, A375 cells, 2 hours incubation
Procedure: (§1) All compounds or DMSO (dimethyl sulphoxide) for the ERK2 Mass Spectrometry and A375 phospho-p90RSK assays were dispensed from source plates containing compounds at 10 mM in 100% (v/v) DMSO or 100% DMSO, directly into assay plates using an Echo 555 Acoustic dispenser (Labcyte Inc™). Depending on the assay, two separate plate preparations were followed. In Workflow A, 10 mM compound stocks were diluted 1:100 using a fixed-tip 96-head Agilent VPrep liquid handler (Agilent Technologies, Santa Clara, Calif.) to give four intermediate dilutions (10 mM, 100 μM, 1 μM, 10 nM). In Workflow B, 10 mM compound stocks were diluted 1:10 using a Tecan Freedom Evo (Tecan Group Ltd., Switzerland), and then 1:100 using the Echo 555 and Labcyte LX to produce three intermediate dilutions across three Labcyte qualified source plates (1 mM, 10 μM, 100 nM). These intermediate dilution plates were then used by the Echo 555 to generate final assay-ready compound plates with a 12 point dose range (10, 3, 1, 0.25, 0.1, 0.03, 0.01, 0.0025, 0.001, 0.0003, 0.0001, 0.0000125 μM) in order to calculate compound IC50s, with a total DMSO concentration in the assay of 1%. For the ERK2 Mass Spectrometry assay Workflow B was used. For the A375 phospho-p90RSK cell assay, the intermediate 1:100 dilution plate described in Workflow A was used by the Echo to dispense compounds and DMSO directly into the cell plates with a 12 point dose range (30, 10, 3.125, 1.25, 0.3, 0.1, 0.03125, 0.0125, 0.003, 0.001, 0.0003125, 0.00003 μM) in order to calculate compound IC50's, with a total DMSO concentration in the assay of 0.3%.
A375 Phospho-p90RSK Cellular Assay
A375 cells were cultured in cell media composed of DMEM (Dulbecco's modified Eagle's medium), 10% (v/v) Foetal Calf Serum and 1% (v/v) L-Glutamine. After harvesting, cells were dispensed into black, 384-well Costar plates (#3712, Corning) to give 2400 cells per well in a total volume of 40 μl cell media, and were incubated overnight at 37° C., 90% relative humidity and 5% CO2 in a rotating incubator. Test compounds and reference controls were dosed directly into the cell plates using a Labcyte Echo 555 acoustic dispenser. The cell plates were then incubated for 2 hours at 37° C. before being fixed by the addition of 20 μl 12% formaldehyde in PBS/A (4% final concentration), followed by a 20 minute room temperature incubation, and then a 2× wash with 150 μl PBS/A (phosphate buffered saline containing albumin) using a BioTek ELx405 platewasher. Cells were permeabilised with 20 μl 0.1% Triton X-100 in PBS/A for 20 minutes at room temperature, and then washed 1× with 100 μl PBS/A. Primary phospho-p90RSK (Thr359) (D1E9) rabbit monoclonal antibody (#8753, Cell Signaling Technology) was diluted 1:1000 in assay buffer (0.05% (v/v) Tween, 5% (v/v) Foetal Calf Serum, in PBS/A), 20 μl added per well, and plates were incubated at 4° C. overnight. Cell plates were washed 2× with 200 μl PBS/T (phosphate buffered saline containing Tween-20), then 20 μl 1:500 dilution in assay buffer of Alexa Fluor® 647 goat anti-rabbit IgG secondary antibody (#A31573, Molecular Probes, Life Technologies), with a 1:5000 dilution of Hoechst 33342, was added per well. Following a 90 minute incubation at room temperature, plates were washed 2× with 200 μl PBS/T, and 40 μl PBS/A was added per well. Stained cell plates were covered with black lid seals, and then read on a Cellomics ArrayScan™ VTI imaging platform (Thermo Scientific), using an XF53 filter with 10× objective, with a LED light source set-up to analyse nuclear staining with Hoechst 33342 (405 nm) and secondary antibody staining of phospho-p90RSK (647 nm). Data was analysed and IC50's were calculated using Genedata Screener® software.

[2] = target: T1, ERK2 (Homo sapiens, UniProt P28482); assay: ERK2 Rapidfire Mass Spectrometry Inhibition of Catalysis Assay; assay type: biochemical; conditions: 1.2 nM ERK2, 16 μM Erktide, 120 μM ATP (measured Km), 15 minute pre-incubation; read-out: ERK2 Mass Spectrometry Enzyme IC50
T1 construct: made in house
T1 sequence (P28482 whole entry): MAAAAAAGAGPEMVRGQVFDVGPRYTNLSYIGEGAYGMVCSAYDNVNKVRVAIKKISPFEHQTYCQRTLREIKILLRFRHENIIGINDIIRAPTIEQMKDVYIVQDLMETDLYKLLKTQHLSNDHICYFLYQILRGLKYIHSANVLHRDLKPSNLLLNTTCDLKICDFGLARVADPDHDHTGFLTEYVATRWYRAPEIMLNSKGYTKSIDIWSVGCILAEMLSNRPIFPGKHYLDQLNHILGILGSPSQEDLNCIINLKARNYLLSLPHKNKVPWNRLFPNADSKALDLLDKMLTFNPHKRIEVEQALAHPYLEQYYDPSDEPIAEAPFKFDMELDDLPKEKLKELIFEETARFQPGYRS
Procedure: as §1
ERK2 Rapidfire Mass Spectrometry Inhibition of Catalysis Assay
MEK U911-activated ERK2 protein was expressed and purified in-house. Enzyme and substrate solutions were made up in assay buffer consisting of 50 mM Tris (pH 7.5), 10 mM MgCl2, 0.1 mM EGTA (ethylene glycol tetraacetic acid), 10 mM DTT (dithiothreitol) and 0.01% (v/v) CHAPS (3-[(3-Cholamidopropyl)dimethylammonio]-1-propanesulfonate). 1.2 nM ERK2 protein was prepared in assay buffer and 10 μl was dispensed into each well of a polypropylene, 384-well plate (#781201, Greiner) containing test and reference control compounds. […] The reaction was allowed to progress for 20 minutes at room temperature before being quenched by the addition of 80 al 1% (v/v) formic acid. The assay plates were then run on the RapidFire Mass Spectrometry platform (Agilent) to measure substrate (unphosphorylated Erktide) and product (phosphorylated Erktide) levels. Data was analysed and IC50's (half maximal inhibitory concentration) were calculated using Genedata Screener® software.

Row | Compound | IC50 ([1]; A-375) [nM] | IC50 [2] [nM] | IC50 ([1]; A-375, 2 h) [nM]
1 | Cc1cccc(CN2C(=O)c3nc(-c4nc(Nc5ccnn5C)ncc4Cl)cn3C[C@@H]2C)n1 [Example 11, (S)-2-(5-chloro-2-((1-methyl-1H-pyrazol-5-yl)amino)pyrimidin-4-yl)-6-methyl-7-((6-methylpyridin-2-yl)methyl)-6,7-dihydroimidazo[1,2-a]pyrazin-8(5H)-one] | 150 | 0.8 | 
2 | Cc1cnc(Nc2ccnn2C)nc1-c1cn2c(n1)C(=O)N(Cc1cccc(C(F)F)n1)CC2 [Example 15, 7-((6-(Difluoromethyl)pyridin-2-yl)methyl)-2-(5-methyl-2-((1-methyl-1H-pyrazol-5-yl)amino)pyrimidin-4-yl)-6,7-dihydroimidazo[1,2-a]pyrazin-8(5H)-one] | 150 | 0.6 | 
3 | COC[C@H]1Cn2cc(-c3nc(Nc4ccnn4C)ncc3C)nc2C(=O)N1Cc1cccc(C(F)F)n1 [Example 16, (R)-7-((6-(Difluoromethyl)pyridin-2-yl)methyl)-6-(methoxymethyl)-2-(5-methyl-2-((1-methyl-1H-pyrazol-5-yl)amino)pyrimidin-4-yl)-6,7-dihydroimidazo[1,2-a]pyrazin-8(5H)-one] | 120 | 1.1 | 
4 | COC[C@H]1Cn2cc(-c3nc(Nc4ccnn4C)ncc3C)nc2C(=O)N1Cc1cccc(Cl)c1 [Example 17, (R)-7-(3-Chlorobenzyl)-6-(methoxymethyl)-2-(5-methyl-2-((1-methyl-1H-pyrazol-5-yl)amino)pyrimidin-4-yl)-6,7-dihydroimidazo[1,2-a]pyrazin-8(5H)-one] | 5.2 | 0.9 | 
5 | Cc1cnc(Nc2ccnn2C)nc1-c1cn2c(n1)C(=O)N(Cc1cc(F)cc(F)c1)[C@@H](C)C2 [Example 22, (S)-7-(3,5-Difluorobenzyl)-6-methyl-2-(5-methyl-2-((1-methyl-1H-pyrazol-5-L)amino)pyrimidin-4-yl)-6,7-dihydroimidazo[1,2-a]pyrazin-8(5H)-one] | 19 | 0.8 | 
6 | COc1cccc(CN2C(=O)c3nc(-c4nc(Nc5ccnn5C)ncc4C)cn3C[C@@H]2C)c1 [Example 23, (S)-7-(3-Methoxybenzyl)-6-methyl-2-(5-methyl-2-((1-methyl-1H-pyrazol-5-yl)amino)pyrimidin-4-yl)-6,7-dihydroimidazo[1,2-a]pyrazin-8(5H)-one] | 40 | 0.6 | 
7 | COc1cc(CN2C(=O)c3nc(-c4nc(Nc5ccnn5C)ncc4C)cn3C[C@@H]2C)ccc1F [Example 24, (S)-7-(4-Fluoro-3-methoxybenzyl)-6-methyl-2-(5-methyl-2-((1-methyl-1H-pyrazol-5-yl)amino)pyrimidin-4-yl)-6,7-dihydroimidazo[1,2-a]pyrazin-8(5H)-one] | 84 | 0.5 | 
8 | Cc1cnc(Nc2ccnn2C)nc1-c1cn2c(n1)C(=O)N(Cc1ccnc(C(F)(F)F)n1)[C@@H](C)C2 [Example 26, (S)-6-methyl-2-(5-methyl-2-((1-methyl-1H-pyrazol-5-yl)amino)pyrimidin-4-yl)-7-((2-(trifluoromethyl)pyrimidin-4-yl)methyl)-6,7-dihydroimidazo[1,2-a]pyrazin-8(5H)-one] | 200 | 1.1 | 
9 | Cc1cnc(Nc2ccnn2C)nc1-c1cn2c(n1)C(=O)N(Cc1cccc(C(F)(F)F)n1)[C@@H](C)C2 [Example 27, (S)-6-Methyl-2-(5-methyl-2-((1-methyl-1H-pyrazol-5-yl)amino)pyrimidin-4-yl)-7-((6-(trifluoromethyl)pyridin-2-yl)methyl)-6,7-dihydroimidazo[1,2-a]pyrazin-8(5H)-one] | 77 | 0.8 | 
10 | Cc1cnc(Nc2ccnn2C)nc1-c1cn2c(n1)C(=O)N(Cc1cccc(OC(F)F)c1)[C@@H](C)C2 [Example 28, (S)-7-(3-(Difluoromethoxy)benzyl)-6-methyl-2-(5-methyl-2-((1-methyl-1H-pyrazol-5-yl)amino)pyrimidin-4-yl)-6,7-dihydroimidazo[1,2-a]pyrazin-8(5H)-one] | 110 | 0.5 | 

Further compounds by falling IC50 [2], results first:

Row | IC50 ([1]; A-375) [nM] | IC50 [2] [nM] | IC50 ([1]; A-375, 2 h) [nM] | Compound
11 | 130 | 0.7 |  | Cc1cnc(Nc2ccnn2C)nc1-c1cn2c(n1)C(=O)N(Cc1cccc(C(F)F)n1)[C@@H](C)C2 [Example 25, (S)-7-((6-(Difluoromethyl)pyridin-2-yl)methyl)-6-methyl-2-(5-methyl-2-((1-methyl-1H-pyrazol-5-yl)amino)pyrimidin-4-yl)-6,7-dihydroimidazo[1,2-a]pyrazin-8(5H)-one]
12 | 3 | 0.6 |  | Cc1cnc(Nc2ccnn2C)nc1-c1cn2c(n1)C(=O)N(Cc1ccc(F)c(Cl)c1)CC2 [Example 12, 7-(3-Chloro-4-fluorobenzyl)-2-(5-methyl-2-((1-methyl-1H-pyrazol-5-yl)amino)pyrimidin-4-yl)-6,7-dihydroimidazo[1,2-a]pyrazin-8(5H)-one]
13 | 11 | 0.6 |  | Cc1cnc(Nc2ccnn2C)nc1-c1cn2c(n1)C(=O)N(Cc1cccc(C(F)F)c1)[C@@H](C)C2 [Example 21, (S)-7-(3-(Difluoromethyl)benzyl)-6-methyl-2-(5-methyl-2-((1-methyl-1H-pyrazol-5-yl)amino)pyrimidin-4-yl)-6,7-dihydroimidazo[1,2-a]pyrazin-8(5H)-one]
14 | 5.3 | 0.5 |  | Cc1cnc(Nc2ccnn2C)nc1-c1cn2c(n1)C(=O)N(Cc1cccc(Cl)c1)[C@@H](C)C2 [Example 19, (S)-7-(3-Chlorobenzyl)-6-methyl-2-(5-methyl-2-((1-methyl-1H-pyrazol-5-yl)amino)pyrimidin-4-yl)-6,7-dihydroimidazo[1,2-a]pyrazin-8(5H)-one]
15 |  | 0.4 | 38 | Cc1cnc(Nc2ccnn2C)nc1-c1cn2c(n1)C(=O)N(Cc1ccc(F)c(F)c1)[C@@H](C)C2 [Example 20, (S)-7-(3,4-Difluorobenzyl)-6-methyl-2-(5-methyl-2-((1-methyl-1H-pyrazol-5-yl)amino)pyrimidin-4-yl)-6,7-dihydroimidazo[1,2-a]pyrazin-8(5H)-one]
16 |  | 0.3 | 12 | Cc1cnc(Nc2ccnn2C)nc1-c1cn2c(n1)C(=O)N(Cc1cccc(Cl)c1)CC2 [Example 13, 7-(3-Chlorobenzyl)-2-(5-methyl-2-((1-methyl-1H-pyrazol-5-yl)amino)pyrimidin-4-yl)-6,7-dihydroimidazo[1,2-a]pyrazin-8(5H)-one]
17 | 24 | 0.3 |  | Cc1cnc(Nc2ccnn2C)nc1-c1cn2c(n1)C(=O)N(Cc1cccc(C(F)F)c1)CC2 [Example 14, 7-(3-(Difluoromethyl)benzyl)-2-(5-methyl-2-((1-methyl-1H-pyrazol-5-yl)amino)pyrimidin-4-yl)-6,7-dihydroimidazo[1,2-a]pyrazin-8(5H)-one]
